Data published in patent US9603889B2, “IAP antagonists” (BRISTOL-MYERS SQUIBB COMPANY, priority 2012, dated 2017).

target: XIAP BIR3 (N-His-Tb-BIR3(241-356, XIAP)) (Homo sapiens (Human), UniProt P98170); type: binding; settings: 130 nM N-His-Tb-BIR3(241-356, XIAP), 1.4 nM fluoresceinated modified SMAC peptide, 60 minutes room temperature; read-out: XIAP BIR3 FPA IC50
Sequence (P98170 241-356): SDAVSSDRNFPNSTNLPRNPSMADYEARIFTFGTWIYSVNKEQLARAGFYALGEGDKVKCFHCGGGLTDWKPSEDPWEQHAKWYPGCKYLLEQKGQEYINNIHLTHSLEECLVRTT

SMILES	IC50
CC[C@H](c1ccccc1)N(Cc1ccc(C(=O)N[C@H]2C[C@@H](C(=O)N[C@@H]3CCCc4ccccc43)N(C(=O)[C@@H](NC(=O)[C@H](C)NC)C(C)(C)C)C2)cc1)C(=O)[C@@H]1Cc2ccccc2CN1C(=O)[C@@H](NC(=O)[C@H](C)NC)C(C)(C)C [Example 20, (S)-2-((S)-3,3-Dimethyl-2-((S)-2-(methylamino)propanamido)butanoyl)-N-(4-(((3S,5S)-1-((S)-3,3-dimethyl-2-((S)-2-(methylamino)propanamido)butanoyl)-5-(((R)-1,2,3,4-tetrahydro-naphthalen-1-yl)carbamoyl)pyrrolidin-3-yl)carbamoyl)benzyl)-N-((R)-1-phenylpropyl)-1,2,3,4-tetra-hydroisoquinoline-3-carboxamide]	110 nM
CN[C@@H](C)C(=O)N[C@H](C(=O)N1C[C@@H](NC(=O)c2ccc(CN(C(=O)[C@@H]3Cc4ccccc4CN3C(=O)[C@@H](NC(=O)[C@H](C)NC)C(C)(C)C)[C@H](C)C(c3ccccc3)c3ccccc3)cc2)C[C@H]1C(=O)N[C@@H]1CCCc2ccccc21)C(C)(C)C [Example 21, (S)-2-((S)-3,3-Dimethyl-2-((S)-2-(methylamino)propanamido)butanoyl)-N-(4-(((3S,5S)-1-((S)-3,3-dimethyl-2-((S)-2-(methylamino)propanamido)butanoyl)-5-(((R)-1,2,3,4-tetra-hydronaphthalen-1-yl)carbamoyl)pyrrolidin-3-yl)carbamoyl)benzyl)-N-((R)-1,1-diphenylpropan-2-yl)-1,2,3,4-tetrahydro-isoquinoline-3-carboxamide]	290 nM
CN[C@@H](C)C(=O)N[C@H](C(=O)N1C[C@@H](NC(=O)c2ccc(CN(C(=O)[C@@H]3Cc4ccccc4CN3C(=O)[C@@H](NC(=O)[C@H](C)NC)C(C)(C)C)[C@H](C)c3ccccc3)cc2)C[C@H]1C(=O)N[C@@H]1CCCc2ccccc21)C(C)(C)C [Example 23, (S)-2-((S)-3,3-Dimethyl-2-((S)-2-(methylamino)propanamido)butanoyl)-N-(4-(((3S,5S)-1-((S)-3,3-dimethyl-2-((S)-2-(methylamino)propanamido)butanoyl)-5-(((R)-1,2,3,4-tetra-hydronaphthalen-1-yl)carbamoyl)pyrrolidin-3-yl)carbamoyl)benzyl)-N-((R)-1-phenylethyl)-1,2,3,4-tetra-hydroisoquinoline-3-carboxamide]	120 nM
CN[C@@H](C)C(=O)N[C@H](C(=O)N1C[C@@H](NC(=O)c2ccc(CN(C(=O)[C@@H]3Cc4ccccc4CN3C(=O)[C@@H](NC(=O)[C@H](C)NC)C(C)(C)C)[C@H](C)c3ccccc3OC)cc2)C[C@H]1C(=O)N[C@@H]1CCCc2ccccc21)C(C)(C)C [Example 24, (S)-2-((S)-3,3-Dimethyl-2-((S)-2-(methylamino)propanamido)butanoyl)-N-(4-(((3S,5S)-1-((S)-3,3-dimethyl-2-((S)-2-(methylamino)propanamido)butanoyl)-5-(((R)-1,2,3,4-tetrahydro-naphthalen-1-yl)carbamoyl)pyrrolidin-3-yl)carbamoyl)benzyl)-N-((R)-1-(2-methoxyphenyl)ethyl)-1,2,3,4-tetrahydro-isoquinoline-3-carboxamide]	130 nM
CN[C@@H](C)C(=O)N[C@H](C(=O)N1C[C@@H](NC(=O)c2ccc(CN(C(=O)[C@@H]3Cc4ccccc4CN3C(=O)[C@@H](NC(=O)[C@H](C)NC)C(C)(C)C)[C@H](C)Cc3ccccc3F)cc2)C[C@H]1C(=O)N[C@@H]1CCCc2ccccc21)C(C)(C)C [Example 25, (S)-2-((S)-3,3-Dimethyl-2-((S)-2-(methylamino)propanamido)butanoyl)-N-(4-(((3S,5S)-1-((S)-3,3-dimethyl-2-((S)-2-(methylamino)propanamido)butanoyl)-5-(((R)-1,2,3,4-tetrahydro-naphthalen-1-yl)carbamoyl)pyrrolidin-3-yl)carbamoyl)benzyl)-N-((R)-1-(2-fluorophenyl)propan-2-yl)-1,2,3,4-tetrahydro-isoquinoline-3-carboxamide]	60 nM
CN[C@@H](C)C(=O)N[C@H](C(=O)N1CC(NC(=O)c2ccc(CN(C(=O)[C@@H]3Cc4ccccc4CN3C(=O)[C@@H](NC(=O)[C@H](C)NC)C(C)(C)C)C(C)c3ccccc3Cl)cc2)C[C@H]1C(=O)NC1CCCc2ccccc21)C(C)(C)C (stereo partly drawn) [Example 26, (3S)-N-(1-(2-Chlorophenyl)ethyl)-2-((S)-3,3-dimethyl-2-((S)-2-(methylamino)propanamido)butanoyl)-N-(4-(((3S,5S)-1-((S)-3,3-dimethyl-2-((S)-2-(methylamino)propanamido)butanoyl)-5-(((R)-1,2,3,4-tetrahydro-naphthalen-1-yl)carbamoyl)pyrrolidin-3-yl)carbamoyl)benzyl)-1,2,3,4-tetra-hydroisoquinoline-3-carboxamide]	190 nM
CN[C@@H](C)C(=O)N[C@H](C(=O)N1CCc2ccccc2[C@H]1C(=O)N(Cc1ccc(C(=O)N[C@H]2C[C@@H](C(=O)N[C@@H]3CCCc4ccccc43)N(C(=O)[C@@H](NC(=O)[C@H](C)NC)C(C)(C)C)C2)cc1)[C@H](C)Cc1ccccc1F)C(C)(C)C [Example 27, (S)-2-((S)-3,3-Dimethyl-2-((S)-2-(methylamino)propanamido)butanoyl)-N-(4-(((3S,5S)-1-((S)-3,3-dimethyl-2-((S)-2-(methylamino)propanamido)butanoyl)-5-(((R)-1,2,3,4-tetrahydro-naphthalen-1-yl)carbamoyl)pyrrolidin-3-yl)carbamoyl)benzyl)-N-((R)-1-(2-fluorophenyl)propan-2-yl)-1,2,3,4-tetrahydro-isoquinoline-1-carboxamide]	90 nM
CN[C@@H](C)C(=O)N[C@H](C(=O)N1C[C@@H](NC(=O)c2ccc(CN(C(=O)[C@@H]3Cc4ccccc4CN3C(=O)[C@@H](NC(=O)[C@H](C)NC)C(C)(C)C)[C@H](C)c3ccccc3C)cc2)C[C@H]1C(=O)N[C@@H]1CCCc2ccccc21)C(C)(C)C [Example 28, (S)-2-((S)-3,3-Dimethyl-2-((S)-2-(methylamino)propanamido)butanoyl)-N-(4-(((3S,5S)-1-((S)-3,3-dimethyl-2-((S)-2-(methylamino)propanamido)butanoyl)-5-(((R)-1,2,3,4-tetra-hydronaphthalen-1-yl)carbamoyl)pyrrolidin-3-yl)carbamoyl)benzyl)-N-((R)-1-(o-tolyl)ethyl)-1,2,3,4-tetrahydro-isoquinoline-3-carboxamide]	160 nM
CCOc1ccccc1[C@@H](C)N(Cc1ccc(C(=O)N[C@H]2C[C@@H](C(=O)N[C@@H]3CCCc4ccccc43)N(C(=O)[C@@H](NC(=O)[C@H](C)NC)C(C)(C)C)C2)cc1)C(=O)[C@@H]1Cc2ccccc2CN1C(=O)[C@@H](NC(=O)[C@H](C)NC)C(C)(C)C [Example 29, (S)-2-((S)-3,3-Dimethyl-2-((S)-2-(methylamino)propanamido)butanoyl)-N-(4-(((3S,5S)-1-((S)-3,3-dimethyl-2-((S)-2-(methyl-amino)propanamido)butanoyl)-5-(((R)-1,2,3,4-tetra-hydronaphthalen-1-yl)carbamoyl)pyrrolidin-3-yl)carbamoyl)benzyl)-N-((R)-1-(2-ethoxyphenyl)ethyl)-1,2,3,4-tetrahydro-isoquinoline-3-carboxamide]	160 nM
CN[C@@H](C)C(=O)N[C@H](C(=O)N1Cc2ccccc2C[C@H]1CN(C(=O)c1ccc(C(=O)N[C@H]2C[C@@H](C(=O)N[C@@H]3CCCc4ccccc43)N(C(=O)[C@@H](NC(=O)[C@H](C)NC)C(C)(C)C)C2)cc1)[C@H](C)Cc1ccc2ccccc2c1)C(C)(C)C [Example 30, N^1-(((S)-2-((S)-3,3-Dimethyl-2-((S)-2-(methylamino)propanamido)butanoyl)-1,2,3,4-tetrahydro-isoquinolin-3-yl)methyl)-N^4-((3S,5S)-1-((S)-3,3-dimethyl-2-((S)-2-(methylamino)propanamido)butanoyl)-5-(((R)-1,2,3,4-tetrahydro-naphthalen-1-yl)carbamoyl)pyrrolidin-3-yl)-N^1-((R)-1-(naphthalen-2-yl)propan-2-yl) terephthalamide]	270 nM
CN[C@@H](C)C(=O)N[C@H](C(=O)N1Cc2ccccc2C[C@H]1CN(C(=O)c1ccc(C(=O)N[C@H]2C[C@@H](C(=O)N[C@@H]3CCCc4ccccc43)N(C(=O)[C@@H](NC(=O)[C@H](C)NC)C(C)(C)C)C2)cc1)[C@H](C)c1ccc2ccccc2c1)C(C)(C)C [Example 31, N^1-(((S)-2-((S)-3,3-Dimethyl-2-((S)-2-(methylamino)propanamido)butanoyl)-1,2,3,4-tetrahydro-isoquinolin-3-yl)methyl)-N^4-((3S,5S)-1-((S)-3,3-dimethyl-2-((S)-2-(methyl-amino)propanamido)butanoyl)-5-(((R)-1,2,3,4-tetrahydro-naphthalen-1-yl)carbamoyl)pyrrolidin-3-yl)-N^1-((R)-1-(naphthalen-2-yl)ethyl) terephthalamide]	250 nM
CN[C@@H](C)C(=O)N[C@H](C(=O)N1Cc2ccccc2C[C@H]1CN(CCc1cccc2ccccc12)C(=O)c1ccc(C(=O)N[C@H]2C[C@@H](C(=O)N[C@@H]3CCCc4ccccc43)N(C(=O)[C@@H](NC(=O)[C@H](C)NC)C(C)(C)C)C2)cc1)C(C)(C)C [Example 33, N^1-(((S)-2-((S)-3,3-Dimethyl-2-((S)-2-(methylamino)propanamido)butanoyl)-1,2,3,4-tetrahydro-isoquinolin-3-yl)methyl)-N^4-((3S,5S)-1-((S)-3,3-dimethyl-2-((S)-2-(methylamino)propanamido)butanoyl)-5-(((R)-1,2,3,4-tetrahydro-naphthalen-1-yl)carbamoyl)pyrrolidin-3-yl)-N^1-(2-(naphthalen-1-yl)ethyl) terephthalamide]	120 nM
